Experimental data: US20260306500A1, “METHOD OF INHIBITING ADENOSINE TRIPHOSPHATE SECRETION, METHOD OF INHIBITING HEPATIC STELLATE CELL ACTIVATION, METHOD OF DEACTIVATING HEPATIC STELLATE CELL, METHOD OF TREATING HEPATIC FIBROSIS, METHOD OF TREATING NON-ALCOHOLIC STEATOHEPATITIS, AND METHOD OF TREATING PSORIASIS” (Kurume University, priority 2023, published 2026)

Experiments:
V-ATPase [1] = target: T1, V-ATPase (Bos taurus, UniProt P31404+P31408); assay: Transmembrane potential generated (oxonol-V fluorescence quenching) in chromaffin granules; assay type: biochemical, cattle; settings: role: inhibitor; 5 mM PEP, in presence of ATP, N=2
T1 construct: Chromaffin granule membranes were prepared from adrenal glands collected from slaughtered cattle; from tissue; host or cells: cattle adrenal glands, chromaffin granule membranes (sucrose density gradient)
T1 sequence (P31404 whole entry, looked up): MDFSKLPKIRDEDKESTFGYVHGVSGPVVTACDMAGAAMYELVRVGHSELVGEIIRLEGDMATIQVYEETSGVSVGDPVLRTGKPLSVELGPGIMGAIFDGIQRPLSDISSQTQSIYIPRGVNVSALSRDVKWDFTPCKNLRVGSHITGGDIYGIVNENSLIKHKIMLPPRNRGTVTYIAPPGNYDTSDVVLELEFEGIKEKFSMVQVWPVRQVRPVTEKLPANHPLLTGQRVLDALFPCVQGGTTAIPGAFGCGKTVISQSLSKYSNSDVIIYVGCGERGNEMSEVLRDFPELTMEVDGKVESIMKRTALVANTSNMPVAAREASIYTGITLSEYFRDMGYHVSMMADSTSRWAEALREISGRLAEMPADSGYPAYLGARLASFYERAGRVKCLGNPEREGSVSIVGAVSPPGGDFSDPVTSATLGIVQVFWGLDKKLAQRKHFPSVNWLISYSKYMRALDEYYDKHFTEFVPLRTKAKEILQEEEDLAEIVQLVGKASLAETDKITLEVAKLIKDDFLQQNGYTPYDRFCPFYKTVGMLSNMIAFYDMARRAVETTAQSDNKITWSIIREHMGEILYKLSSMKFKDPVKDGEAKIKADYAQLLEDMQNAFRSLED
T1 sequence (P31408 whole entry, looked up): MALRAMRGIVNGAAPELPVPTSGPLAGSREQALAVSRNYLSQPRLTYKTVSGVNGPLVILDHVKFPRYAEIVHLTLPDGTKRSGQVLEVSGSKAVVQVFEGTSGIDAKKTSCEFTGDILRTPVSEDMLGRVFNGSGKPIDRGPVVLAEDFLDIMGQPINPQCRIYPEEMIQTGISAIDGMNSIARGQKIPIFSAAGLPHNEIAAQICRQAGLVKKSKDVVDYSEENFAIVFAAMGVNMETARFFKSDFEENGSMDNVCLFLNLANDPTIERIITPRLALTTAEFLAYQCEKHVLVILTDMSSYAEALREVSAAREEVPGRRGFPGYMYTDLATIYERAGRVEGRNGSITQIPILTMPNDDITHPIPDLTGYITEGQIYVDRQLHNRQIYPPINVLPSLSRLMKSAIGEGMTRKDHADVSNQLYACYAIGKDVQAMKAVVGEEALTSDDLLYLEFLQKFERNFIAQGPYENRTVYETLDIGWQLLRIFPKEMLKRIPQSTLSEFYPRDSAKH
Experimental: (§1) Chromaffin granule membranes were prepared from adrenal glands collected from slaughtered cattle according to Reference A (Nathan Nelson et al., 1988, Chromaffin Granule Proton Pump, Methods in Enzymology, 157, 619-633). Chromaffin granule membranes prepared by sucrose density gradient centrifugation were suspended in 2 ml of SME buffer (20 mM MOPS-tris (pH 7.0), 0.3 M sucrose, 5 mM EDTA, 10 μg/ml leupeptin, and 10 μg/ml pepstatin)+25% glycerol, and the resulting suspension was aliquoted and stored at −80° C. Under these conditions, the ATP transport activity, the V-ATPase activity, and the catecholamine transport activity remain fully active for at least one year.
ATP-dependent proton transport by V-ATPase was measured according to Reference B. Proton transport activity was measured using a spectrofluorometer at excitation wavelength of 492 nm and a fluorescence wavelength 540 nm, wherein fluorescence quenching of acridine orange was used as an index (N=2). The transmembrane potential generated was measured using a spectrofluorometer at an excitation wavelength of 580 nm and a fluorescence wavelength of 630 nm, wherein fluorescence quenching of oxonol-V was used as an index (N=2). […]

[2] = test system: isolated chromaffin granules; settings: role: inhibitor; 1 to 10 mM PEP; cited from earlier work
[3] = test system: catecholamine transport of chromaffin granule membranes; assay: Catecholamine (dopamine) transport in chromaffin granule membranes; assay type: biochemical, cattle; settings: role: inhibitor
Experimental: as §1
A catecholamine transport inhibition experiment was carried out in the same manner as the ATP transport experiment except that the experiment used a measurement liquid containing 20 mM MOPS-tris (pH 7.0), 0.1 M sucrose, 0.1 M potassium chloride, 5 mM magnesium acetate, and about 5 μg of chromaffin granule membranes. To 0.5 ml of the measurement liquid, 2 mM ATP was added, and the resulting mixture was incubated at 30° C. for about 5 minutes, followed by addition of 3[H]-dopamine thereto to a final concentration of 10 μM. After further incubation at 30° C. for 15 minutes, 0.2 ml of the reaction liquid was subjected to suction filtration through a Millipore MCE membrane filter with a pore size of 0.45 μm, and the radioactivity on the filter was measured (N=3). The substrate, 3[H]-dopamine, was prepared by mixing 3,4-[RING-2,5,6-^3H]dihydroxyphenylethylamine (dopamine) (30 Ci/mmol) (manufactured by New England Nuclear) with dopamine hydrochloride (manufactured by LKT Laboratories) such that a final concentration of […] was achieved during the use.
Chromaffin granule membrane vesicles were prepared in the same manner as in Example 5, and uptake of radiolabeled ATP into the vesicles was measured. Transport activity of catecholamine (dopamine) and ATP-dependent proton transport by V-ATPase were also measured in the same manner as in Example 5.

α-SMA in mouse liver = assay: α-SMA Western blotting of liver tissue of TAA-treated mice; assay type: in vivo; settings: imeglimin 200 mg/kg p.o. (FIG. 31)
Experimental: In accordance with Example 15, immunostaining of α-SMA in liver sections and observation by fluorescence microscopy were performed for the normal control group, the TAA group, and the TAA+IMG group, and for a TAA+Clo group, which was treated in the same manner as the TAA+IMG group except that clodronate, instead of imeglimin, was administered at 30 mg/kg by blending it in the drinking water from 1 week after the start of TAA administration.
Further, α-SMA was compared by Western blotting. Fresh mouse liver was homogenized in Western lysis buffer (20 mM Tris-HCl, pH 7.6, 150 mM NaCl, 2 mM EDTA, 0.5% NP-40) supplemented with protease and phosphatase inhibitor tablets (manufactured by Roche Applied Science), followed by centrifugation at 10,000×g at 4° C. for 5 minutes to obtain a supernatant. Protein content in the supernatant was quantified using a BCA Protein Assay Kit (manufactured by ThermoFisher Scientific). […] Thereafter, protein bands were visualized using an […] (ECL) Western blotting detection system (manufactured by GE Healthcare) and detected with an image analyzer LAS-4000 mini (manufactured by Fujifilm).

keratinocytes = assay: Imiquimod-induced ATP secretion in keratinocytes; assay type: cell-based, human; settings: 18 hours, N=8 (FIG. 32)
Experimental: In the same manner as in Example 1, keratinocytes were cultured at 2.5×10^4 cells/well in a 24-well plate at 37° C. in 5% CO2 for 4 days. The medium was replaced with HBSS (manufactured by Gibco) supplemented with 1 μM or 10 μM imeglimin, and incubation was performed at 37° C. in 5% CO2 for 18 hours. Thereafter, imiquimod was added thereto at 1 μg/ml or 0.5 μg/ml, and incubation was performed for 15 minutes, followed by collection of 200 μl of the supernatant. The supernatant was immediately treated on a heat block at 95° C. for 10 minutes, and ATP in the supernatant was quantified using a ATP Assay Kit—Luminescence (manufactured by Dojindo) (N=8).

V-ATPase [4] = assay: Inhibitory effect on V-ATPase (data not shown)
VNUT = assay: Inhibitory effect on VNUT (data not shown)

C=C(OP(=O)(O)O)C(=O)O [PEP, phosphoenolpyruvic acid]
change in oxonol-V quenching level (V-ATPase [1]): did not change the level of quenching
uptake of ATP into isolated chromaffin granules [2]: inhibited
ATP-dependent dopamine transport activity ([3]; 5 mM PEP, 10 μM 3H-dopamine, 2 mM ATP, N=3, control 11.07±0.129): 12.41±0.250 nmol/mg protein
inhibition of catecholamine transport ([3]; up to 5 mM PEP (data not shown)): did not inhibit

C[C@@H]1N=C(N)NC(N(C)C)=N1 [imeglimin]
TAA-induced increase in α-SMA (Western blotting) (α-SMA in mouse liver): markedly suppressed
imiquimod-promoted ATP secretion (keratinocytes; 1 μM imeglimin): strongly inhibited
imiquimod-promoted ATP secretion (keratinocytes; 10 NM imeglimin (so in the source)): strongly inhibited
inhibitory effect on V-ATPase (V-ATPase [4]): neither imeglimin nor metformin exhibited a strong inhibitory effect
inhibitory effect on VNUT (VNUT): neither imeglimin nor metformin exhibited a strong inhibitory effect
